According to ChEMBL document CHEMBL5154945, “Discovery and Optimization of Pyrrolopyrimidine Derivatives as Selective Disruptors of the Perinucleolar Compartment, a Marker of Tumor Progression toward Metastasis” (J Med Chem, 2022):

System: PC-3M
Assay: Inhibition of cell migration at human PC-3M cells measured after 5 days by Hoechst 33342 staining based microscopic method
Type: functional
Conditions: 120 h

**Q.** How did the AC50 turn out when `O=C(Nc1cccnc1)c1cccs1` was run?
**A.** Its AC50 is 1980 nM.
